The test system of the experiment is acetylation level of H3K23 in ZR-75-1 cells. Kind of experiment: Effect on histone acetilation in ER-positive breast cancer cells (Western blotting). Particulars: 5 days of incubation, from 5 μM, Western blot (FIG. 1). The format is cell-based, human. The method, then:
Test Example 4: Assay for Effects of Compounds on Histone Acetylation in Estrogen Receptor-Positive Breast Cancer Cells
Assay Method: Western Blotting Method (Immunoblotting Assay)
The effects of the test compounds on the acetylation level of H3K23 in ZR-75-1 cells (Nanjing Cobioer, CBP60402) were assayed. • 1. On day 1, the cells were plated at 400,000 cells/well (2 mL/well) and cultured overnight in an incubator at 37° C. with 5% CO2. • 2. On day 2, compounds were added starting at 5 μM, with a 10-fold serial dilution across a total of 3 concentration gradients, and DMSO was added to the negative control wells. • 3. On day 6, after 5 days of incubation with compounds, protein samples were collected: An ice box, pre-cooled PBS (4° C.), a cell lysis buffer RIPA (Beyotime, P0013B), and a protease inhibitor (100x) (Thermo Scientific™, 87786) were prepared. Then, 120 μL of the cell lysis buffer was added to each well. The mixture was placed on ice for about 15 min. […] Protein quantification by BCA method (Beyotime, P0009) • Standards (8 concentrations) were prepared, and the samples and the standards were added to a 96-well plate. […] The absorbance was then measured using a microplate reader. […]
The next day, the PVDF membrane was taken out and washed (8 min×3) with TBST (with 0.5% Tween 20). […] After the washing, a luminescence solution (Tanon, 180-506) was added for exposure. […]
Background: In western blotting, separated proteins are transferred to a membrane and probed.

Structures are written as SMILES.

As for `COc1ccccc1S(=O)(=O)Nc1noc2cc(Cn3cccn3)cc(OC)c12` [PF-8144, reference compound], the “acetylation level of H3K23” value is “significantly reduce the acetylation level of H3K23”.

As for `COc1ccc2c(c1S(=O)(=O)Nc1noc3cc(Cn4cccn4)c(F)c(OC)c13)OCCO2` [Compound 28, N-(6-((1H-Pyrazol-1-yl)methyl)-5-fluoro-4-methoxybenzo[d]isoxazol-3-yl)-6-methoxy-2,3-dihydrobenzo[b][1,4]dioxine-5-sulfonamide], the “acetylation level of H3K23” value is reported as “significantly reduce the acetylation level of H3K23”.
